From US20230389542A1, “USE OF [(1,5-DIPHENYL-1H-PYRAZOL-3-YL)OXY] ACETIC ACID DERIVATIVES AND THEIR SALTS AND COMPOSITIONS CONTAINING THEM, FOR REDUCING PHYTOTOXIC EFFECTS OF AGROCHEMICALS, IN PARTICULAR OF HERBICIDES, IN USEFUL PLANTS AND CROP PLANTS” (BAYER AKTIENGESELLSCHAFT, priority 2020, published 2023)
Several values for one entry are separate records, joined by “and”; a condition that tells them apart may be missing. Equal values may be shown once.

What was measured:
Type in all cases: in vivo
[1] = system: summer wheat (TRZAS; cv. Triso); experiment: Absolute action: reduction of damage by mesosulfuron-methyl on summer wheat, greenhouse post-emergence; set-up: key to Absolute reduction in damage (difference): percentage points of visual damage (0-100% scale vs untreated)
Procedure: (§1) 2.1 Absolute Action of Selected Compounds of the Invention Using the Example of Reduction of Damage by Mesosulfuron-Methyl on Summer Wheat (TRZAS) The seeds of the crop plants to be treated are laid out in sandy loam in wood fiber or plastic pots (diameter ˜4 cm), covered with soil and grown in a greenhouse under good conditions for germination and growth. The trial plants were treated at the early leaf stage (BBCH10-BBCH12). In the course of this, the inventive compounds of the general formula (D formulated in the form of wettable powders (WP) were sprayed onto the above-ground parts of the plants as an aqueous suspension with a water application rate corresponding to 800 l/ha with addition of wetting agent (e.g. 0.2% agrotin) in the specified dose. This was followed by the application of the herbicide. For this purpose, mesosulfuron-methyl, formulated in the form of water-dispersible granules (WG), was sprayed onto the above-ground parts of the plants in the form of an aqueous dispersion with a water application rate corresponding to 800 l/ha with addition of wetting agent (e.g. 0.2% agrotin) in a dose of 20 g/ha. The dose of the herbicide was chosen here such that it causes visually apparent damage (min. 30%, max. 75%) compared to untreated crop plants at the evaluation time on a control group of crop plants without safener treatment that were included in the same trial. After application, the plants were cultivated under good growth conditions in a greenhouse. The damage was visually assessed 14-21 days after application. The damage effect was assessed visually on a scale of 0-100% by comparison with untreated control plants, and averaged over 2-3 repeats per treatment. Examples: • 0%=no noticeable effect compared to the untreated plant • 20%=the treated plant population has 20% damage compared to the untreated control population (e.g. growth height, leaf damage, etc.) • 100%=treated plants completely damaged/killed.

[2] = system: summer barley (HORVS; cv. Montoya); experiment: Absolute action: reduction of damage by mesosulfuron-methyl on summer barley, greenhouse post-emergence; set-up: key to Absolute reduction in damage (difference): difference in % damage (0-100% visual scale vs untreated control)
Procedure: as §1, with “2.2” for “2.1”, “Barley (HORVS)” for “Wheat (TRZAS)”, “(I)” for “(D”

[3] = system: summer wheat (TRZAS; cv. Triso); experiment: Relative action (efficacy code): reduction of damage by mesosulfuron-methyl on summer wheat; set-up: key: 0: no reduction in damage (appearance corresponding to the herbicide control); 1: slight reduction in damage; 2: distinct reduction in damage; 3: significant reduction in damage; 4: complete reduction in damage (appearance corresponding to the untreated control); conditions: visual, 9-13 days after application
Procedure: 2.3 Relative Action of Selected Compounds of the Invention Using the Example of Reduction of Damage by Mesosulfuron-Methyl on Summer Wheat (TRZAS) The seeds of the crop plants to be treated are laid out in sandy loam in plastic pots (diameter μ4 cm), covered with soil and grown in a greenhouse under good conditions for germination and growth. The trial plants were treated at the early leaf stage (BBCH10-BBCH12). In the course of this, the inventive compounds of the general formula (I) formulated in the form of wettable powders (WP) were sprayed onto the above-ground parts of the plants as an aqueous suspension with a water application rate corresponding to 800 l/ha with addition of wetting agent (e.g. 0.2% Genapol-LRO or 0.2% Mero) in the specified dose. This was followed by the application of the herbicide. For this purpose, mesosulfuron-methyl, formulated in the form of water-dispersible granules (WG), was sprayed onto the above-ground parts of the plants in the form of an aqueous dispersion with a water application rate corresponding to 800 l/ha with addition of wetting agent (e.g. 0.2% Genapol-LRO or 1 l/ha Biopower) in a dose of 40-60 g/ha. The dose of the herbicide was chosen here such that it causes visually apparent damage (min. 30%, max. 75%) compared to untreated crop plants at the evaluation time on a control group of crop plants without safener treatment that were included in the same trial. After application, the plants were cultivated under good growth conditions in a greenhouse. 9-13 days after application, the efficacy of the test compounds was assessed visually. For this purpose, the appearance of the plants treated with the test compound and herbicide was compared to the corresponding herbicide controls (without safener; with clearly visible damage) and the untreated controls (without damage). The damage-reducing effect of the test compounds was expressed here in graded efficacy codes according to the following scheme: • 0: no reduction in damage (appearance corresponding to the herbicide control) • 1: slight reduction in damage • 2: distinct reduction in damage • 3: significant reduction in damage • 4: complete reduction in damage (appearance corresponding to the untreated control) The trials show clear efficacy of the inventive compounds selected by way of example with regard to the reduction in damage to the summer wheat crop plant (TRZAS; cv. Triso) caused by the herbicide mesosulfuron-methyl: […]

[4] = safener 125 g/ha + mesosulfuron-methyl 20 g/ha
[5] = safener 125 g/ha + mesosulfuron-methyl 20 g/ha, visual, 14-21 days after application
[6] = safener 500 g/ha + mesosulfuron-methyl 20 g/ha
[7] = safener 500 g/ha + mesosulfuron-methyl 20 g/ha, visual, 14-21 days after application
[8] = safener 100 g/ha + mesosulfuron-methyl 40-60 g/ha
[9] = safener 500 g/ha + mesosulfuron-methyl 40-60 g/ha
[10] = mesosulfuron-methyl 20 g/ha alone (no safener), visual, 14-21 days after application, scale 0-100%

## O=C(O)COc1cc(-c2ccccc2)n(-c2ccc(Cl)cc2)n1 [I.3-7]
[1]; [4]
  Absolute reduction in damage (difference): 26
[1]; [5]
  Herbicide damage with compound of the formula (I): 37%

## COc1ccccc1-n1nc(OCC(=O)O)cc1-c1ccccc1 [I.3-20]
[1]; [6]
  Absolute reduction in damage (difference): 36
[1]; [7]
  Herbicide damage with compound of the formula (I): 17%

## CCOC(=O)COc1cc(-c2ccc(F)cc2)n(-c2ccccc2OC)n1 [I.11-20]
[1]; [4]
  Absolute reduction in damage (difference): 46
[1]; [5]
  Herbicide damage with compound of the formula (I): 7%
[1]; [6]
  Absolute reduction in damage (difference): 46
[1]; [7]
  Herbicide damage with compound of the formula (I): 7%

## CCOC(=O)COc1cc(-c2ccc(F)cc2)n(-c2ccc(F)cc2F)n1 [I.11-38]
[1]; [4]
  Absolute reduction in damage (difference): 43
[1]; [5]
  Herbicide damage with compound of the formula (I): 10%
[1]; [6]
  Absolute reduction in damage (difference): 43
[1]; [7]
  Herbicide damage with compound of the formula (I): 10%
[2]; [4]
  Absolute reduction in damage (difference): 23
[2]; [5]
  Herbicide damage with compound of the formula (I): 37%
[2]; [6]
  Absolute reduction in damage (difference): 33
[2]; [7]
  Herbicide damage with compound of the formula (I): 27%

## O=C(O)COc1cc(-c2ccc(F)cc2)n(-c2ccc(F)cc2)n1 [I.12-4]
[1]; [6]
  Absolute reduction in damage (difference): 46
[1]; [7]
  Herbicide damage with compound of the formula (I): 7%
[2]; [6]
  Absolute reduction in damage (difference): 27
[2]; [7]
  Herbicide damage with compound of the formula (I): 33%

## CCOC(=O)COc1cc(-c2ccc(Cl)cc2)n(-c2ccc(Cl)cc2F)n1 [I.20-49]
[3]; [8]
  Efficacy of the safener (efficacy code): 3
[3]; [9]
  Efficacy of the safener (efficacy code): 3

## COc1ccccc1-n1nc(OCC(=O)O)cc1-c1ccc(Cl)cc1 [I.21-20]
[1]; [4]
  Absolute reduction in damage (difference): 30
[1]; [5]
  Herbicide damage with compound of the formula (I): 23%
[1]; [6]
  Absolute reduction in damage (difference): 36
[1]; [7]
  Herbicide damage with compound of the formula (I): 17%

## O=C(O)COc1cc(-c2ccc(Cl)cc2)n(-c2ccc(F)cc2F)n1 [I.21-38]
[1]; [4]
  Absolute reduction in damage (difference): 46
[1]; [5]
  Herbicide damage with compound of the formula (I): 7%
[1]; [6]
  Absolute reduction in damage (difference): 50
[1]; [7]
  Herbicide damage with compound of the formula (I): 3%
[2]; [4]
  Absolute reduction in damage (difference): 33
[2]; [5]
  Herbicide damage with compound of the formula (I): 27%
[2]; [6]
  Absolute reduction in damage (difference): 33
[2]; [7]
  Herbicide damage with compound of the formula (I): 27%

## CCOC(=O)COc1cc(-c2ccc(F)cc2F)n(-c2ccccc2)n1 [I.41-1]
[1]; [4]
  Absolute reduction in damage (difference): 53
[1]; [5]
  Herbicide damage with compound of the formula (I): 0%

## CCOC(=O)COc1cc(-c2ccc(F)cc2F)n(-c2ccc(F)cc2)n1 [I.41-4]
[1]; [4]
  Absolute reduction in damage (difference): 40
[1]; [5]
  Herbicide damage with compound of the formula (I): 13%
[2]; [4]
  Absolute reduction in damage (difference): 23
[2]; [5]
  Herbicide damage with compound of the formula (I): 37%

## CCOC(=O)COc1cc(-c2ccc(F)cc2F)n(-c2ccccc2OC)n1 [I.41-20]
[1]; [4]
  Absolute reduction in damage (difference): 36
[1]; [5]
  Herbicide damage with compound of the formula (I): 17%
[1]; [6]
  Absolute reduction in damage (difference): 43
[1]; [7]
  Herbicide damage with compound of the formula (I): 10%

## CCOC(=O)COc1cc(-c2ccc(F)cc2F)n(-c2ccc(F)cc2F)n1 [I.41-38]
[1]; [6]
  Absolute reduction in damage (difference): 40
[1]; [7]
  Herbicide damage with compound of the formula (I): 13%
[2]; [6]
  Absolute reduction in damage (difference): 33
[2]; [7]
  Herbicide damage with compound of the formula (I): 27%

## COc1ccccc1-n1nc(OCC(=O)O)cc1-c1ccc(F)cc1F [I.42-20]
[1]; [4]
  Absolute reduction in damage (difference): 40
[1]; [5]
  Herbicide damage with compound of the formula (I): 13%

## O=C(O)COc1cc(-c2ccc(F)cc2F)n(-c2ccc(F)cc2F)n1 [I.42-38]
[1]; [4]
  Absolute reduction in damage (difference): 33
[1]; [5]
  Herbicide damage with compound of the formula (I): 20%
[2]; [4]
  Absolute reduction in damage (difference): 23
[2]; [5]
  Herbicide damage with compound of the formula (I): 37%

## CCOC(=O)COc1cc(-c2ccc(Cl)cc2F)n(-c2ccc(Cl)cc2)n1 [I.47-7]
[3]; [8]
  Efficacy of the safener (efficacy code): 2
[3]; [9]
  Efficacy of the safener (efficacy code): 2

## O=C(O)COc1cc(-c2ccc(Cl)cc2F)n(-c2ccc(F)cc2F)n1 [I.48-38]
[3]; [8]
  Efficacy of the safener (efficacy code): 2
[3]; [9]
  Efficacy of the safener (efficacy code): 2

## COC(=O)c1ccc(CNS(C)(=O)=O)cc1S(=O)(=O)NC(=O)Nc1nc(OC)cc(OC)n1 [mesosulfuron-methyl, reference compound]
[1]; [10]
  Herbicide damage without compound of the formula (I): 53% and 63%
[2]; [10]
  Herbicide damage without compound of the formula (I): 60%
